Experimental data published in patent US20220162167A1, “SUBSTITUTED BICYCLIC AND TETRACYCLIC QUINONES AND USE THEREOF AS ANTI-CANCER AGENTS” (THE REGENTS OF THE UNIVERSITY OF MICHIGAN, priority 2019, published 2022).

Experiments:
Type in all cases: cell-based
NCI/ADR-RES = test: NCI60 growth inhibition, NCI/ADR-RES; conditions: Ovarian Cancer
Protocol: (§1) Representative compounds were tested in 60 cell lines (NCI60) at the National Cancer Institute, Developmental Therapeutics Program.
(§2) Representative compounds were tested in a panel of 60 cancer cells (NCI 60) at the National Cancer Institute. Growth inhibition are shown in table 2, table 3, table 4, table 5, and FIG. 1, FIG. 2, FIG. 3, FIG. 4, FIG. 5.

HT29 = test: NCI60 growth inhibition, HT29; conditions: Colon Cancer
Protocol: as §1, §2

ACHN = test: NCI60 growth inhibition, ACHN; conditions: Renal Cancer
Protocol: as §1, §2

NCI-H322M = test: NCI60 growth inhibition, NCI-H322M; conditions: Non-Small Cell Lung Cancer
Protocol: as §1, §2

HCT-116 = test: NCI60 growth inhibition, HCT-116; conditions: Colon Cancer
Protocol: as §1, §2

LOX IMVI = test: NCI60 growth inhibition, LOX IMVI; conditions: Melanoma
Protocol: as §1, §2

MOLT-4 = test: NCI60 growth inhibition, MOLT-4; conditions: Leukemia
Protocol: as §1, §2

NCI-H23 = test: NCI60 growth inhibition, NCI-H23; conditions: Non-Small Cell Lung Cancer
Protocol: as §1, §2

SF-295 = test: NCI60 growth inhibition, SF-295; conditions: CNS Cancer; note: test concentration or dose not given here
Protocol: as §1, §2

NCI-H226 = test: NCI60 growth inhibition, NCI-H226; conditions: Non-Small Cell Lung Cancer; note: test concentration or dose not given here
Protocol: as §1, §2

SF-539 = test: NCI60 growth inhibition, SF-539; conditions: CNS Cancer
Protocol: as §1, §2

HL-60(TB) = test: NCI60 growth inhibition, HL-60(TB); conditions: Leukemia
Protocol: as §1, §2

OVCAR-5 = test: NCI60 growth inhibition, OVCAR-5; conditions: Ovarian Cancer
Protocol: as §1, §2

KM12 = test: NCI60 growth inhibition, KM12; conditions: Colon Cancer; note: test concentration or dose not given here
Protocol: as §1, §2

MALME-3M = test: NCI60 growth inhibition, MALME-3M; conditions: Melanoma
Protocol: as §1, §2

MCF7 = test: NCI60 growth inhibition, MCF7; conditions: Breast Cancer
Protocol: as §1, §2

MDA-MB-435 = test: NCI60 growth inhibition, MDA-MB-435; conditions: Melanoma
Protocol: as §1, §2

CAKI-1 = test: NCI60 growth inhibition, CAKI-1; conditions: Renal Cancer; note: test concentration or dose not given here
Protocol: as §1, §2

K-562 = test: NCI60 growth inhibition, K-562; conditions: Leukemia
Protocol: as §1, §2

M14 = test: NCI60 growth inhibition, M14; conditions: Melanoma
Protocol: as §1, §2

SK-MEL-5 = test: NCI60 growth inhibition, SK-MEL-5; conditions: Melanoma
Protocol: as §1, §2

SW-620 = test: NCI60 growth inhibition, SW-620; conditions: Colon Cancer; note: test concentration or dose not given here
Protocol: as §1, §2

UACC-62 = test: NCI60 growth inhibition, UACC-62; conditions: Melanoma; note: test concentration or dose not given here
Protocol: as §1, §2

HCT-15 = test: NCI60 growth inhibition, HCT-15; conditions: Colon Cancer; note: test concentration or dose not given here
Protocol: as §1, §2

NCI-H522 = test: NCI60 growth inhibition, NCI-H522; conditions: Non-Small Cell Lung Cancer
Protocol: as §1, §2

OVCAR-3 = test: NCI60 growth inhibition, OVCAR-3; conditions: Ovarian Cancer
Protocol: as §1, §2

EKVX = test: NCI60 growth inhibition, EKVX; conditions: Non-Small Cell Lung Cancer
Protocol: as §1, §2

786-0 = test: NCI60 growth inhibition, 786-0; conditions: Renal Cancer
Protocol: as §1, §2

SK-MEL-2 = test: NCI60 growth inhibition, SK-MEL-2; conditions: Melanoma; note: test concentration or dose not given here
Protocol: as §1, §2

RXF 393 = test: NCI60 growth inhibition, RXF 393; conditions: Renal Cancer
Protocol: as §1, §2

IGROV1 = test: NCI60 growth inhibition, IGROV1; conditions: Ovarian Cancer
Protocol: as §1, §2

COLO 205 = test: NCI60 growth inhibition, COLO 205; conditions: Colon Cancer
Protocol: as §1, §2

HOP-62 = test: NCI60 growth inhibition, HOP-62; conditions: Non-Small Cell Lung Cancer; note: test concentration or dose not given here
Protocol: as §1, §2

HCC-2998 = test: NCI60 growth inhibition, HCC-2998; conditions: Colon Cancer
Protocol: as §1, §2

MDA-MB-468 = test: NCI60 growth inhibition, MDA-MB-468; conditions: Breast Cancer; note: test concentration or dose not given here
Protocol: as §1, §2

CCRF-CEM = test: NCI60 growth inhibition, CCRF-CEM; conditions: Leukemia
Protocol: as §1, §2

T-47D = test: NCI60 growth inhibition, T-47D; conditions: Breast Cancer
Protocol: as §1, §2

PC-3 = test: NCI60 growth inhibition, PC-3; conditions: Prostate Cancer
Protocol: as §1, §2

U251 = test: NCI60 growth inhibition, U251; conditions: CNS Cancer
Protocol: as §1, §2

HOP-92 = test: NCI60 growth inhibition, HOP-92; conditions: Non-Small Cell Lung Cancer
Protocol: as §1, §2

OVCAR-4 = test: NCI60 growth inhibition, OVCAR-4; conditions: Ovarian Cancer; note: test concentration or dose not given here
Protocol: as §1, §2

SR = test: NCI60 growth inhibition, SR; conditions: Leukemia
Protocol: as §1, §2

UO-31 = test: NCI60 growth inhibition, UO-31; conditions: Renal Cancer
Protocol: as §1, §2

A498 = test: NCI60 growth inhibition, A498; conditions: Renal Cancer; note: test concentration or dose not given here
Protocol: as §1, §2

SN12C = test: NCI60 growth inhibition, SN12C; conditions: Renal Cancer
Protocol: as §1, §2

SK-MEL-28 = test: NCI60 growth inhibition, SK-MEL-28; conditions: Melanoma
Protocol: as §1, §2

SNB-19 = test: NCI60 growth inhibition, SNB-19; conditions: CNS Cancer; note: test concentration or dose not given here
Protocol: as §1, §2

RPMI-8226 = test: NCI60 growth inhibition, RPMI-8226; conditions: Leukemia
Protocol: as §1, §2

DU-145 = test: NCI60 growth inhibition, DU-145; conditions: Prostate Cancer
Protocol: as §1, §2

MDA-MB-231/ATCC = test: NCI60 growth inhibition, MDA-MB-231/ATCC; conditions: Breast Cancer
Protocol: as §1, §2

TK-10 = test: NCI60 growth inhibition, TK-10; conditions: Renal Cancer
Protocol: as §1, §2

SF-268 = test: NCI60 growth inhibition, SF-268; conditions: CNS Cancer; note: test concentration or dose not given here
Protocol: as §1, §2

A549/ATCC = test: NCI60 growth inhibition, A549/ATCC; conditions: Non-Small Cell Lung Cancer
Protocol: as §1, §2

UACC-257 = test: NCI60 growth inhibition, UACC-257; conditions: Melanoma; note: test concentration or dose not given here
Protocol: as §1, §2

NCI-H460 = test: NCI60 growth inhibition, NCI-H460; conditions: Non-Small Cell Lung Cancer
Protocol: as §1, §2

SK-OV-3 = test: NCI60 growth inhibition, SK-OV-3; conditions: Ovarian Cancer
Protocol: as §1, §2

SNB-75 = test: NCI60 growth inhibition, SNB-75; conditions: CNS Cancer; note: test concentration or dose not given here
Protocol: as §1, §2

HS 578T = test: NCI60 growth inhibition, HS 578T; conditions: Breast Cancer
Protocol: as §1, §2

Compound: Cc1ccc2c(n1)C(=O)C(Cl)=C(Nc1ccc(N3CCN(C)CC3)cc1)C2=O [Compound 13, 7-chloro-2-methyl-6-((4-(4-methylpiperazin-1-yl)phenyl)amino)quinoline-5,8-dione]
- Growth inhibition (% control) GIPRCNT (NCI/ADR-RES): 27.61 % control
- Growth inhibition (% control) GIPRCNT (HT29): 66.44 % control
- Growth inhibition (% control) GIPRCNT (ACHN): −93.75 % control
- Growth inhibition (% control) GIPRCNT (NCI-H322M): 97.35 % control
- Growth inhibition (% control) GIPRCNT (HCT-116): −64.939 % control
- Growth inhibition (% control) GIPRCNT (LOX IMVI): −95.4404 % control
- Growth inhibition (% control) GIPRCNT (MOLT-4): −25.588 % control
- Growth inhibition (% control) GIPRCNT (NCI-H23): 16.65 % control
- Growth inhibition (% control) GIPRCNT (SF-295): 99.36 % control
- Growth inhibition (% control) GIPRCNT (NCI-H226): 105.4813 % control
- Growth inhibition (% control) GIPRCNT (SF-539): −24.5048 % control
- Growth inhibition (% control) GIPRCNT (HL-60(TB)): −46.6759 % control
- Growth inhibition (% control) GIPRCNT (OVCAR-5): −7.548 % control
- Growth inhibition (% control) GIPRCNT (KM12): 92.08 % control
- Growth inhibition (% control) GIPRCNT (MALME-3M): −75.4481 % control
- Growth inhibition (% control) GIPRCNT (MCF7): −61.9194 % control
- Growth inhibition (% control) GIPRCNT (MDA-MB-435): −99.1118 % control
- Growth inhibition (% control) GIPRCNT (CAKI-1): −100 % control
- Growth inhibition (% control) GIPRCNT (K-562): −12.2778 % control
- Growth inhibition (% control) GIPRCNT (M14): 73.83 % control
- Growth inhibition (% control) GIPRCNT (SK-MEL-5): 10.39 % control
- Growth inhibition (% control) GIPRCNT (SW-620): −69.7878 % control
- Growth inhibition (% control) GIPRCNT (UACC-62): −49.3593 % control
- Growth inhibition (% control) GIPRCNT (HCT-15): 70.44 % control
- Growth inhibition (% control) GIPRCNT (NCI-H522): −63.7561 % control
- Growth inhibition (% control) GIPRCNT (OVCAR-3): −100 % control
- Growth inhibition (% control) GIPRCNT (EKVX): −81.7903 % control
- Growth inhibition (% control) GIPRCNT (786-0): 52.18 % control
- Growth inhibition (% control) GIPRCNT (SK-MEL-2): 68.36 % control
- Growth inhibition (% control) GIPRCNT (RXF 393): 62.78 % control
- Growth inhibition (% control) GIPRCNT (IGROV1): −83.5269 % control
- Growth inhibition (% control) GIPRCNT (COLO 205): 82.4617 % control
- Growth inhibition (% control) GIPRCNT (HOP-62): 63.65 % control
- Growth inhibition (% control) GIPRCNT (HCC-2998): 95.31 % control
- Growth inhibition (% control) GIPRCNT (MDA-MB-468): −84.6413 % control
- Growth inhibition (% control) GIPRCNT (CCRF-CEM): −6.237 % control
- Growth inhibition (% control) GIPRCNT (T-47D): −61.1209 % control
- Growth inhibition (% control) GIPRCNT (PC-3): 68.66 % control
- Growth inhibition (% control) GIPRCNT (U251): 8.466 % control
- Growth inhibition (% control) GIPRCNT (HOP-92): −86.301 % control
- Growth inhibition (% control) GIPRCNT (OVCAR-4): −100 % control
- Growth inhibition (% control) GIPRCNT (SR): −5.054 % control
- Growth inhibition (% control) GIPRCNT (UO-31): −97.3532 % control
- Growth inhibition (% control) GIPRCNT (A498): 100.8258 % control
- Growth inhibition (% control) GIPRCNT (SN12C): −88.5465 % control
- Growth inhibition (% control) GIPRCNT (SK-MEL-28): 30.32 % control
- Growth inhibition (% control) GIPRCNT (SNB-19): 94.6 % control
- Growth inhibition (% control) GIPRCNT (RPMI-8226): −32.551 % control
- Growth inhibition (% control) GIPRCNT (DU-145): −18.6864 % control
- Growth inhibition (% control) GIPRCNT (MDA-MB-231/ATCC): −62.773 % control
- Growth inhibition (% control) GIPRCNT (TK-10): 100.0838 % control
- Growth inhibition (% control) GIPRCNT (SF-268): 77.72 % control
- Growth inhibition (% control) GIPRCNT (A549/ATCC): 97.64 % control
- Growth inhibition (% control) GIPRCNT (UACC-257): 57.23 % control
- Growth inhibition (% control) GIPRCNT (NCI-H460): 97.22 % control
- Growth inhibition (% control) GIPRCNT (SK-OV-3): 89.88 % control
- Growth inhibition (% control) GIPRCNT (SNB-75): −53.8363 % control
- Growth inhibition (% control) GIPRCNT (HS 578T): 58 % control
